Active and inactive are the calls of the source.
Assays:
Cytochrome P450 1A2 = molecular target: T1, Cytochrome P450 1A2 (Homo sapiens, UniProt P05177);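 note: PubChem cytochrome P450 panel assay, CYP1A2 panel member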
T1 sequence (P05177 whole entry): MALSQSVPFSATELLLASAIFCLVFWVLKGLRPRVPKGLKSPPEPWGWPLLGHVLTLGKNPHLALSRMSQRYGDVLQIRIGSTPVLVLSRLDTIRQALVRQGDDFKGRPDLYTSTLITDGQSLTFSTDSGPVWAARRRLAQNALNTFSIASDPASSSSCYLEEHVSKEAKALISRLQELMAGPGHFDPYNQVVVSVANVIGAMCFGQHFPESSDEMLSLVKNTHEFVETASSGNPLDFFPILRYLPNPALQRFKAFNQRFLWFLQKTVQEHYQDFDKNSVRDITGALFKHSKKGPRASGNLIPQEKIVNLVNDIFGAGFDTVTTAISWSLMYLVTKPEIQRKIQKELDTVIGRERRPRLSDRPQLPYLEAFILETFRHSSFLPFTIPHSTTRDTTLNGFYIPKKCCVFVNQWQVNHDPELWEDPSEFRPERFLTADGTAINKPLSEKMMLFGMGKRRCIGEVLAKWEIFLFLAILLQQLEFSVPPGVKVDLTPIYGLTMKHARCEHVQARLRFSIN

Ion channel NompC = Ion channel NompC (Danio rerio, UniProt Q7T1G6); assay: Fluorescence counterscreen assay for TRPML3 agonists: dose response cell-based high-throughput screening assay to identify agonists of the transient receptor potential channel N1 (TRPN1). [Related pubchem assays: 1526, 1424, 1448 ]; type: functional
Mucolipin-3 = molecular target: T2, Mucolipin-3 (Homo sapiens, UniProt Q8TDD5); assay: Dose response cell-based high-throughput screening assay for agonists of the transient receptor potential channel ML3 (TRPML3). [Related pubchem assays: 1526, 1424, 1448 ]; type: functional
T2 sequence (Q8TDD5 whole entry): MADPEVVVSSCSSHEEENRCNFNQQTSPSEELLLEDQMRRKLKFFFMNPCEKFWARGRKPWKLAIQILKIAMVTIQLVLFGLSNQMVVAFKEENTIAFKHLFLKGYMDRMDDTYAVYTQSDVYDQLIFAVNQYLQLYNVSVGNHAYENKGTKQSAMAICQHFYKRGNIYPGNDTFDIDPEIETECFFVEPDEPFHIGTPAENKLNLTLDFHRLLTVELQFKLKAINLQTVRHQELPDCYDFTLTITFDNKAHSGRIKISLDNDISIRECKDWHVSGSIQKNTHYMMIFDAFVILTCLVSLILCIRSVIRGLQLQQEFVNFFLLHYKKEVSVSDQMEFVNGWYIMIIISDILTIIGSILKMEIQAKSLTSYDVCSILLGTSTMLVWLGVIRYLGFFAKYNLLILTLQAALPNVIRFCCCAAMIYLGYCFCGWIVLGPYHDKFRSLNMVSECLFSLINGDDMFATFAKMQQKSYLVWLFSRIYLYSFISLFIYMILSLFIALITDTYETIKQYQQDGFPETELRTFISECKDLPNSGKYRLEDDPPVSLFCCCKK

[1] = A High Throughput Confirmatory Assay used to Identify Novel Compounds that Inhibit Mycobacterium Tuberculosis in the absence of Glycerol.; type: functional
[2] = HPDE-C7 pancreatic duct cell viability loss – fluorescence, HTS (AID 430); type: functional, cell-based; conditions: Homo sapiens
[3] = viability loss of HPDE-C7K cells – cell-based, fluorescence, HTS, primary screen (AID 431); type: functional; conditions: Homo sapiens
Protein RecA = molecular target: T3, Protein RecA (Mycobacterium tuberculosis, UniProt P9WHJ3); assay: Fluorescence Cell-Free Homogeneous Dose Retest to Identify Inhibitors of RecA-Intein Splicing Activity. [Related pubchem assays (depositor defined):AID2097, AID2223, AID489010, AID492950]; type: functional
T3 sequence (P9WHJ3 whole entry): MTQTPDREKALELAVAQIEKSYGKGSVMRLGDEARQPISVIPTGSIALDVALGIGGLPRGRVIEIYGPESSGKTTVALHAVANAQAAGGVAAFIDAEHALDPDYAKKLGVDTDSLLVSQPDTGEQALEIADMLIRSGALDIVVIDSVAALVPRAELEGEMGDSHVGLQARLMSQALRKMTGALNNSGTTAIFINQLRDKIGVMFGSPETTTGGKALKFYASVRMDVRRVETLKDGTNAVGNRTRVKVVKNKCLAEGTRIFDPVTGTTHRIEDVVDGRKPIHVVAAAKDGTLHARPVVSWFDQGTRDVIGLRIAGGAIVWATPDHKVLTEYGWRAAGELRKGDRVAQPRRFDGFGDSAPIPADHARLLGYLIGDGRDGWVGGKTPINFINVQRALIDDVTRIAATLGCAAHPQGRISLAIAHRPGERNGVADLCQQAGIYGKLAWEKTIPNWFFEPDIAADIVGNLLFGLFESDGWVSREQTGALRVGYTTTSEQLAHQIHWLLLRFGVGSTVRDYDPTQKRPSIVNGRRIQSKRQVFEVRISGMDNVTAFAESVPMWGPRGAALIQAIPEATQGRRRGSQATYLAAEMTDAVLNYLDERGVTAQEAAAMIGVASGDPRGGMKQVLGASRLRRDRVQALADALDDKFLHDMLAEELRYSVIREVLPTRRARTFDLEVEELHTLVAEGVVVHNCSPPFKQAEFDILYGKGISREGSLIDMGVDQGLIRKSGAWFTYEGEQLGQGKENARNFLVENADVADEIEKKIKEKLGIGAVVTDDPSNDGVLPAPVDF

[4] = molecular target: T4, Replicative DNA helicase DnaB (Mycobacterium tuberculosis, UniProt P9WMR3); assay: DnaB intein splicing inhibitors, dose response, biochemical, cell-free fluorescence (AID 449749); type: functional
T4 sequence (P9WMR3 whole entry): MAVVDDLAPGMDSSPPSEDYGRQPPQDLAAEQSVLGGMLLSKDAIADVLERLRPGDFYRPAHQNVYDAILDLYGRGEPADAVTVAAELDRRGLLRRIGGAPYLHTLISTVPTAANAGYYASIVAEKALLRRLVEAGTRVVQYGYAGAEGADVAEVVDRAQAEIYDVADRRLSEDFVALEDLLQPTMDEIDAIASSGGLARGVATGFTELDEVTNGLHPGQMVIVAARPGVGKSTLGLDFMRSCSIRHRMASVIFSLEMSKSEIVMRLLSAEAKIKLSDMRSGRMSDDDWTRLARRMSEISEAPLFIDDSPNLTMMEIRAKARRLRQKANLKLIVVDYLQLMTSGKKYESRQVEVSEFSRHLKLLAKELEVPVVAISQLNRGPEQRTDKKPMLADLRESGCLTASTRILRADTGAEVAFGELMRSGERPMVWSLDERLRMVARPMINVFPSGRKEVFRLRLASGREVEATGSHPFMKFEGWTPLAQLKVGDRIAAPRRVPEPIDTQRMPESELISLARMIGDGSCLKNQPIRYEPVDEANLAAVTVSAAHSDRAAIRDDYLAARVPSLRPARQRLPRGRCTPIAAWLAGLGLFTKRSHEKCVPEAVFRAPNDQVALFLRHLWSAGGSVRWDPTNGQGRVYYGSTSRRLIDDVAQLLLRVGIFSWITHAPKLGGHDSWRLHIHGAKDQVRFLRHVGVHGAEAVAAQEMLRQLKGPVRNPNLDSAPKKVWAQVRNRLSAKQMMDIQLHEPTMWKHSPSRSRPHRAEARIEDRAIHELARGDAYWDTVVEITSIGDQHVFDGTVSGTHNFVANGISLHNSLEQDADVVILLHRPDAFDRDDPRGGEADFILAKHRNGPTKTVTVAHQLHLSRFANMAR

[5] = molecular target: T5, Heat shock factor protein 1 (Mus musculus, UniProt P38532); assay: enhancement of HSF1-driven luciferase signal – cell-based, NIH3T3, luminescence, dose retest, confirmation (AID 435004); type: functional;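 note: stress induced by proteasome inhibitor MG132 added 30 min after compound; luciferase reporter driven by HSF1 response element in NIH3T3 cells; actives raise luminescence as potentiators of the MG132 stress response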
T5 sequence (P38532 whole entry): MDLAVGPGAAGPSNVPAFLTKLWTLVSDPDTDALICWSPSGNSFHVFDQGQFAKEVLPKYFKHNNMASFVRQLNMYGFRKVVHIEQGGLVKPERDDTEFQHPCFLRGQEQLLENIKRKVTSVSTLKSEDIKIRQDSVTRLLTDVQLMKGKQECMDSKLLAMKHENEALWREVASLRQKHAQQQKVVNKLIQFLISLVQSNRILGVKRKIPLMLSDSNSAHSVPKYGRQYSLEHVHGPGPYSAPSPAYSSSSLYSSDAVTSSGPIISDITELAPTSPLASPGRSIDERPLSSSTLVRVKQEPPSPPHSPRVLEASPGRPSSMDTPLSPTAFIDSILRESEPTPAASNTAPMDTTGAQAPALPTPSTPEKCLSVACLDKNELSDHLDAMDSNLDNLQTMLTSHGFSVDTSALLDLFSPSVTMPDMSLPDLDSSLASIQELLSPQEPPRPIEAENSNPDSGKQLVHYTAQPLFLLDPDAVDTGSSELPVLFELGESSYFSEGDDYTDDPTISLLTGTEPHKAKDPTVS

[6] = molecular target: T6, Polyadenylate-binding protein 1 (Homo sapiens, UniProt P11940); assay: MLLE binding blockers, Cy5 peptide tracer – biochemical, fluorescence polarization, Cy5-PAM2 peptide, secondary, miRNA deadenylation inhibitor project, dose response (AID 602260); type: functional; conditions: read-out: IC50_Mean
T6 sequence (P11940 whole entry, the tested form may be a part): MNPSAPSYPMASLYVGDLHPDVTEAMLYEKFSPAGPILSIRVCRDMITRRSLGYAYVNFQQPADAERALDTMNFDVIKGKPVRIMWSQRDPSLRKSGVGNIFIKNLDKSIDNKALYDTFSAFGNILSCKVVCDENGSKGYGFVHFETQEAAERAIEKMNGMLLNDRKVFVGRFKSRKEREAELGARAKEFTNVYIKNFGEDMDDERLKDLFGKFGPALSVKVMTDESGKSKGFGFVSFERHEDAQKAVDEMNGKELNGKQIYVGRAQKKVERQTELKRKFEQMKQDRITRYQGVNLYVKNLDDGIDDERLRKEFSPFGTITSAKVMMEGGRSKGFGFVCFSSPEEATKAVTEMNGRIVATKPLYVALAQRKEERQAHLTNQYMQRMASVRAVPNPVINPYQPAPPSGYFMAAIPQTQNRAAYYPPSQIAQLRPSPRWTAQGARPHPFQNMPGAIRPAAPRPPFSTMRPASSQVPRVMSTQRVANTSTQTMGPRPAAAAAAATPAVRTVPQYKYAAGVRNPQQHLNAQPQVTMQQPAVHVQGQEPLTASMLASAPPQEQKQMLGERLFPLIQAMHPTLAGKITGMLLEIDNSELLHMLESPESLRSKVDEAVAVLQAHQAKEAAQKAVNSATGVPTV

[7] = molecular target: T6, Polyadenylate-binding protein 1; assay: MLLE domain peptide-binding blockers, IC50 – biochemical, fluorescence polarization, FITC-PAM2 peptide, dose response (AID 602259); type: functional; conditions: read-out: IC50_Mean
[8] = viability of uninfected HEp-2 cells – cell-based, HTS, cytotoxicity control for RSV inhibitor project, dose response (AID 2410); type: functional; conditions: human respiratory syncytial virus
[9] = MIN6 cell viability loss – mouse insulinoma, cytotoxicity control, dose response (AID 2122); type: functional;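 note: confirmatory high-throughput counterscreen run to flag cytotoxic compounds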
[10] = decrease of insulin promoter-GFP reporter – imaging, high-content screening, mouse beta cells (AID 1628); type: functional; conditions: MIN6
[11] = molecular target: Peroxisome proliferator-activated receptor gamma/Nuclear receptor coactivator 1 (Homo sapiens, UniProt P37231); type: functional;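 note: agonist potency as compounds enhance coactivator SRC-1 recruitment to PPARgamma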
[12] = molecular target: Peroxisome proliferator-activated receptor gamma/Nuclear receptor coactivator 3 (Homo sapiens, UniProt P37231); type: functional;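 note: agonist potency for raising coactivator recruitment to the receptor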
Sequence of Peroxisome proliferator-activated receptor gamma/Nuclear receptor coactivator 3 (P37231 whole entry): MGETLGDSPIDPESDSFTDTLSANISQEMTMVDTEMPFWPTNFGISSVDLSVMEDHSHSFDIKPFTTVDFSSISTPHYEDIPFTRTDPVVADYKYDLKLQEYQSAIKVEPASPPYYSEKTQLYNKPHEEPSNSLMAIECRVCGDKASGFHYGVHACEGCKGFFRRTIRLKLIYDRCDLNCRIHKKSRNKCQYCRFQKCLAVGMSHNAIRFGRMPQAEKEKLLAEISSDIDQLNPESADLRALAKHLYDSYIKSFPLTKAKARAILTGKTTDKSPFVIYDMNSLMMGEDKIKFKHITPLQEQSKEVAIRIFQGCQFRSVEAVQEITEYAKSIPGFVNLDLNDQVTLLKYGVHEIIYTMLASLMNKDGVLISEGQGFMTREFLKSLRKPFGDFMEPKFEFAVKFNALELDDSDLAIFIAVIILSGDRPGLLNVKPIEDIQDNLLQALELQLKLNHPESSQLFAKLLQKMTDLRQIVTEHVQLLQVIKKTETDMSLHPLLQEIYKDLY
Sequence of Peroxisome proliferator-activated receptor gamma/Nuclear receptor coactivator 3 (Q9Y6Q9 whole entry, further chain): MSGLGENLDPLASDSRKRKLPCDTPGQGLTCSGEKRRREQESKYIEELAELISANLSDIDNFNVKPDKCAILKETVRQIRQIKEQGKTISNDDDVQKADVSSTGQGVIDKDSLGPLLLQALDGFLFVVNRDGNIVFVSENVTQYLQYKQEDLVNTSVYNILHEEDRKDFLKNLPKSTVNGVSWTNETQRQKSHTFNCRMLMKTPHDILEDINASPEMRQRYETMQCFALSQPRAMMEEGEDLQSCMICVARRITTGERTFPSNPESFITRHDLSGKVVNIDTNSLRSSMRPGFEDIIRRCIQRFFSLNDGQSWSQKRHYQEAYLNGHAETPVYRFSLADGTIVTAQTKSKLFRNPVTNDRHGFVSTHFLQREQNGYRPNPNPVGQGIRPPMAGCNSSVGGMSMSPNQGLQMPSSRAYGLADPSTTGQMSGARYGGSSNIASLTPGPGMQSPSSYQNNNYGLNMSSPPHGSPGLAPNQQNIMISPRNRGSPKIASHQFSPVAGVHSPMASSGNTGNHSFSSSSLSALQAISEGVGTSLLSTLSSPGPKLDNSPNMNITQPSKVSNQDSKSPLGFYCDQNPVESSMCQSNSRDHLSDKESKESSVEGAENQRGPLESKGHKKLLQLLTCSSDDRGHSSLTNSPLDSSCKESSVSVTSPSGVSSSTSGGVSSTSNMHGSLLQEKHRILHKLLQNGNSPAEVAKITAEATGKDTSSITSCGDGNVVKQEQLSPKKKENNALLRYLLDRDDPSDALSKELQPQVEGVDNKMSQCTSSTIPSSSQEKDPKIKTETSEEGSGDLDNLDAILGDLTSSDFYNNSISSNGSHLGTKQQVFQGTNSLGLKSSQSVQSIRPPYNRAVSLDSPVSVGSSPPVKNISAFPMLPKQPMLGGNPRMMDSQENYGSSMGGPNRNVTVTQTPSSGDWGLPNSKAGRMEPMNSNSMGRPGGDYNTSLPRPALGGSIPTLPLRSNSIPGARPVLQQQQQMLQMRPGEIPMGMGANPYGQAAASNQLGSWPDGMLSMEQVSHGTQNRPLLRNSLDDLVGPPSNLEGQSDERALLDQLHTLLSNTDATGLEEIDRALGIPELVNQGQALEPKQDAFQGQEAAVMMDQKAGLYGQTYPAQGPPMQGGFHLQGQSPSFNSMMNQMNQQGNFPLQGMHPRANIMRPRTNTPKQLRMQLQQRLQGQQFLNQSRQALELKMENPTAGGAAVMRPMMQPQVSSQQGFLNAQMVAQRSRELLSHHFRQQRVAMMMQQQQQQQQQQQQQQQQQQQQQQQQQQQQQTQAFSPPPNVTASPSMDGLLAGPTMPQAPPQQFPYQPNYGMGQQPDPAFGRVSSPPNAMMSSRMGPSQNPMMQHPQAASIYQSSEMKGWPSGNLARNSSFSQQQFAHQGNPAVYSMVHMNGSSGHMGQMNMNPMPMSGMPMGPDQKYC

[13] = A Cell Based Secondary Assay To Explore Cytotoxicity of Compounds that Sensitize Mycobacterium Tuberculosis to Beta-Lactam Antibiotics.; type: functional
[14] = molecular target: Peroxisome proliferator-activated receptor gamma/Nuclear receptor coactivator 2 (Homo sapiens, UniProt P37231); type: functional;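 note: agonist potency for raising coactivator recruitment to the receptor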
Sequence of Peroxisome proliferator-activated receptor gamma/Nuclear receptor coactivator 2 (P37231 whole entry): as the sequence (P37231 whole entry) above
Sequence of Peroxisome proliferator-activated receptor gamma/Nuclear receptor coactivator 2 (Q15596 whole entry, further chain): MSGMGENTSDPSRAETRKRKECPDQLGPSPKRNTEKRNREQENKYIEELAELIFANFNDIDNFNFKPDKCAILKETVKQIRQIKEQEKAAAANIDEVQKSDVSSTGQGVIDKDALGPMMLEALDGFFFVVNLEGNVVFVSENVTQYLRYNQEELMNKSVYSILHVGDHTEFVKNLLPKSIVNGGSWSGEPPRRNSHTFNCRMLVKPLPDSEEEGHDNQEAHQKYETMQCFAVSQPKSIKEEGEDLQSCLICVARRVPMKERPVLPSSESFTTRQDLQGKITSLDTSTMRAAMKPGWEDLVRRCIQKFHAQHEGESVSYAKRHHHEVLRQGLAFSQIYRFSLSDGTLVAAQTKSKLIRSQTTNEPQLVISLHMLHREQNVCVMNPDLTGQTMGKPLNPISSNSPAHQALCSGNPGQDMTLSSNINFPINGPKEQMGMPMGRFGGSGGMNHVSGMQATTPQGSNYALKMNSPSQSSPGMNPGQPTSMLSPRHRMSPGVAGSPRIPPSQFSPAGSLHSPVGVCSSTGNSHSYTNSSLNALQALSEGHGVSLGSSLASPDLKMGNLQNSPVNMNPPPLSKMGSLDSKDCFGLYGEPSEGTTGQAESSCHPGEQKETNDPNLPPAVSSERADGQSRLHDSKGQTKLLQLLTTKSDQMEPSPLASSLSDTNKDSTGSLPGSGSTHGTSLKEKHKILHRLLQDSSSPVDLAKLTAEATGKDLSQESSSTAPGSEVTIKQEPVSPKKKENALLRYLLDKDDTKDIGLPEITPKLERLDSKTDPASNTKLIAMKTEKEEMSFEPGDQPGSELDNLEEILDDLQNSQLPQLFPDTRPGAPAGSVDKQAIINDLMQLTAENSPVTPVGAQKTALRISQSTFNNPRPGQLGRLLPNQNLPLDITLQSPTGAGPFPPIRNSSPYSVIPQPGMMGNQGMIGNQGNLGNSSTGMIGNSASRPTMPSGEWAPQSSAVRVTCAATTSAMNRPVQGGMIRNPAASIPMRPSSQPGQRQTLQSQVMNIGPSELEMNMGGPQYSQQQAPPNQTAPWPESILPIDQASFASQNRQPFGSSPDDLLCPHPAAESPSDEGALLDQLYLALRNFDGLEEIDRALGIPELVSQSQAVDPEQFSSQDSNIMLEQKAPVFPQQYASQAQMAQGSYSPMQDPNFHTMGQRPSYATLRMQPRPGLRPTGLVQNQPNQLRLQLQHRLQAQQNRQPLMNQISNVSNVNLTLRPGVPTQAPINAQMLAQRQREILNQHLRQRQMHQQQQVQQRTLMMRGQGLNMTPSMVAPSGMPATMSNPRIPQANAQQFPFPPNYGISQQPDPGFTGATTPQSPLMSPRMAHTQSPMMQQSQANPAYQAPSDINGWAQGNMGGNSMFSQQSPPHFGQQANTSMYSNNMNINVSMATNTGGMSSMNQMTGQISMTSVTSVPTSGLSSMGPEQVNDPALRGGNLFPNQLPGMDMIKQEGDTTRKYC

[15] = microbe, parasite or virus in culture; type: functional; conditions: Mycobacterium tuberculosis
[16] = molecular target: T7, Short transient receptor potential channel 4 (Mus musculus, UniProt Q9QUQ5); assay: block of DAMGO-driven TRPC4 calcium entry – cell-based, HEK293 TRPC4/mu-opioid, Fluo-4 calcium, dose response (AID 434942); type: functional;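 note: potency of inhibitors blocking the TRPC4 calcium response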
T7 sequence (Q9QUQ5 whole entry): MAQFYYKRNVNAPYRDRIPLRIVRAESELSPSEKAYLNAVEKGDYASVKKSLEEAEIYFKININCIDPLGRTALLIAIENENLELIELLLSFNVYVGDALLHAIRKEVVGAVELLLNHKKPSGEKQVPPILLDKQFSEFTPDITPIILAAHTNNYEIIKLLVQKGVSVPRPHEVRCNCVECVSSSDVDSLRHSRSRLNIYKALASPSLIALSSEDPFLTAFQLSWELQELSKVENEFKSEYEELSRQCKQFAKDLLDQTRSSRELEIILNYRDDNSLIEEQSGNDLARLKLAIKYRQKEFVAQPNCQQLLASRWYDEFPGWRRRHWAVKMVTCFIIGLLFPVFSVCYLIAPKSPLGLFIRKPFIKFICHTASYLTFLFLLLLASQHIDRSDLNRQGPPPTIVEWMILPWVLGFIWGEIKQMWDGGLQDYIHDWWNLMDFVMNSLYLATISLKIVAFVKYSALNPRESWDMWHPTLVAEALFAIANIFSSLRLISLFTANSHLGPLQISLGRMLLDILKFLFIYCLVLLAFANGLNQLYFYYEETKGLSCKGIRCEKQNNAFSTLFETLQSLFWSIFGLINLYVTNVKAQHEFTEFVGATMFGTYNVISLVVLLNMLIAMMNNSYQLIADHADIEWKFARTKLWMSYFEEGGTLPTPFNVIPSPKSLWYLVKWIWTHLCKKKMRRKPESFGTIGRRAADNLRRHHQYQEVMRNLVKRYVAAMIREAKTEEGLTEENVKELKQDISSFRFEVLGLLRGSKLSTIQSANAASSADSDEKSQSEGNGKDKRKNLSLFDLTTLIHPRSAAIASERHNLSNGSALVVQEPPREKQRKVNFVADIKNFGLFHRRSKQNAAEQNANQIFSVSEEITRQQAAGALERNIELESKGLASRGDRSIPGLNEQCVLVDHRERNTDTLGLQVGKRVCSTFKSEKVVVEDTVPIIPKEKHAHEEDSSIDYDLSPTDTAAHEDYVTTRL

In the case of `O=S(=O)(C=C(c1ccccc1)c1ccccc1)c1ccccc1`, the AC50 (Cytochrome P450 1A2) is reported as 28.2 µM (inconclusive), the EC50 (Ion channel NompC) is reported as > 29.9 µM (not active) and the EC50 (Mucolipin-3) is reported as 2.82 µM (active).
With `COc1ccc(-c2cc(-c3ccc(OC)cc3)[nH]n2)cc1` the IC50 [1] was > 50 µM (active).
With `COc1ccccc1-n1nnnc1S(=O)(=O)Cc1ccc(Cl)cc1` the EC50 [2] was 6.84 µM (active), the EC50 [3] was 9.56 µM (active) and the EC50 (Protein RecA) was 1.94 µM (active). For the same molecule, the AC50 [4] was 5.1 µM (active) and the EC50 [5] was 17.3 µM (active).
For `CCOC(=O)CSc1nc2c(sc(=S)n2-c2ccccc2OC)c(=O)n1Cc1ccco1`, the EC50 (Ion channel NompC) was > 29.9 µM (not active), the IC50 [6] was > 66 µM (inactive) and the IC50 [7] was > 66 µM (inactive). The EC50 (Mucolipin-3) was 0.37 µM (active).
With `O=C(NC1=NCCS1)c1cc(-c2ccc(-c3ccccc3)cc2)nc2ccccc12` the IC50 (cells) was 21.7 µM (active) and the CC50 [8] was 21.9 µM (active).
For `Cc1ccc(C(C)C)c(OCC(=O)Nc2ccccc2N2CCN(C)CC2)c1`, the EC50 [2] was > 20 µM (not active), the EC50 [3] was > 20 µM (not active) and the IC50 [9] was 6.82 µM (active). For the same molecule, the IC50 [10] was 2.58 µM (active).
With `Cc1nc(SCC(=O)Nc2ccc(F)cc2)c(C#N)c(C)c1CC(=O)c1ccc(Br)cc1` the EC50 [11] was 13.8 µM (not active), the EC50 [12] was 24.8 µM (not active) and the CC50 [13] was 9.4 µM (active). The EC50 [14] was 9.89 µM (active).
For `Cc1ccc(N2C(=O)C3CCC(c4ccccc4)CC3C2=O)cc1` (configuration not stated), the EC50 [11] was > 79.4 µM (not active), the EC50 [12] was > 79.4 µM (not active) and the EC50 [14] was > 79.4 µM (not active).
For `Cc1sc(-n2c(C)cc(/C=N/n3cnnc3)c2C)c(C#N)c1C`, the EC50 [11] was > 79.4 µM (not active), the EC50 [12] was > 79.4 µM (not active) and the EC50 [14] was > 79.4 µM (not active).
With `N#Cc1cccc2c1-c1ccccc1/C2=N/NC(N)=O` the CC50 [15] was > 40 µM (active), the IC50 [1] was > 100 µM (active) and the EC50 [16] was 0.0533 µM (active).
